Biological target: human metabotropic Glutamate 4 receptor (mGluR4) (Homo sapiens (Human), UniProt Q14833)
Assay: Assay A: in vitro testing of mGluR4 potency (glutamate-induced cAMP lowering, HTRF cAMP)
Format: cell-based
Conditions: HEK293 cells overexpressing human mGluR4; 10 uM L-glutamic acid, 1 uM forskolin; compounds of the present invention
Description: A. In Vitro Testing of mGluR4 Potency
The in vitro activity of the compounds according to the invention may be investigated as follows:
The HEK293 cell overexpressing the human metabotropic Glutamate 4 receptor are thawed at 37° C. and immediately diluted with cell culture medium. After centrifugation, the cell pellet is re-suspended in medium and then distributed from a stirred spinner flask into the wells of the assay plate. The plates are incubated for one hour at room temperature before they are incubated for 24 hours at 37° C./5% CO2. After washing the cells in the plate three times with 80 uL HBSS/HEPES buffer (10 uL buffer remained in the wells after washing), 5 uL per well of compounds diluted in HBSS/HEPES buffer containing 0.2% BSA (final concentration: 0.1%) and 1 mM IBMX (final concentration: 0.5 mM) are added to the wells of the assay plate. Thereafter 5 uL per well of L-Glutamic acid (final concentration: 10 uM), forskolin (final concentration: 1 uM) and 1 mM IBMX (final concentration: 0.5 mM) dissolved in HBSS/HEPES buffer containing 0.2% BSA (final concentration: 0.1%) are added to the assay plate (final DMSO concentration: 1%). Several wells of the assay plate are used either for the positive and the negative controls or for the cAMP standard curve. The assay plate is incubated for 30 minutes at room temperature. Then 5 ul per well of Anti-cAMP-Antibody-d2 solution and 5 ul per well of cAMP-Europium Cryptate dilution are added to all wells of the plate and the plate is incubated another 60 minutes light protected at room temperature. The emission at 615 nm and 665 nm (Excitation wavelength: 320 nm) are measured on the EnVision™ reader (Perkin Elmer). The ratio between the emission at 665 nm and 615 is calculated by the reader. The whole assay is performed in the dark or under green light.
The cAMP standard is prepared by diluting the cAMP stock solution with HBSS/Hepes buffer: 5 μl/well of the cAMP dilutions (in HBSS/Hepes buffer containing 1 mM IBMX and 0.2% BSA—final concentration: 0.5 mM IBMX and 0.1% BSA) are added to 10 ul/well HBSS/Hepes buffer plus 5 ul/well 4% DMSO in HBSS/Hepes containing 0.2% BSA (final DMSO concentration: 1%—like in the wells containing compounds) in the wells of the assay plate. The final cAMP concentrations in the assay plate are: 0, 0.17, 0.69, 2.78, 11.1, 44.5, 178, and 712 nM (two wells/cAMP concentration).
Each assay microtiter plate contained also wells with vehicle controls instead of compound as controls for L-Glutamic acid induced signal (negative control; 100% CTL; 10 uM L-Glutamic acid+1 uM forskolin+0.5 mM IBMX+1% DMSO) and wells with vehicle controls without L-Glutamic acid as controls for non-specific changes in signal (positive control; 0% CTL; 0 uM L-Glutamic acid+1 uM forskolin+0.5 mM IBMX+1% DMSO).
The analysis of the data is performed by the calculation the ratio between the emission at 665 nm and the emission at 615 nm (Em665/Em615 ratio). Thereafter the signals of the compounds are normalized using the positive and negative controls by the following formula:
PoC=100×((Signal Sample−Positive Control)/(Negative Control−Positive Control))

Sequence of human metabotropic Glutamate 4 receptor (mGluR4) (Q14833 33-912): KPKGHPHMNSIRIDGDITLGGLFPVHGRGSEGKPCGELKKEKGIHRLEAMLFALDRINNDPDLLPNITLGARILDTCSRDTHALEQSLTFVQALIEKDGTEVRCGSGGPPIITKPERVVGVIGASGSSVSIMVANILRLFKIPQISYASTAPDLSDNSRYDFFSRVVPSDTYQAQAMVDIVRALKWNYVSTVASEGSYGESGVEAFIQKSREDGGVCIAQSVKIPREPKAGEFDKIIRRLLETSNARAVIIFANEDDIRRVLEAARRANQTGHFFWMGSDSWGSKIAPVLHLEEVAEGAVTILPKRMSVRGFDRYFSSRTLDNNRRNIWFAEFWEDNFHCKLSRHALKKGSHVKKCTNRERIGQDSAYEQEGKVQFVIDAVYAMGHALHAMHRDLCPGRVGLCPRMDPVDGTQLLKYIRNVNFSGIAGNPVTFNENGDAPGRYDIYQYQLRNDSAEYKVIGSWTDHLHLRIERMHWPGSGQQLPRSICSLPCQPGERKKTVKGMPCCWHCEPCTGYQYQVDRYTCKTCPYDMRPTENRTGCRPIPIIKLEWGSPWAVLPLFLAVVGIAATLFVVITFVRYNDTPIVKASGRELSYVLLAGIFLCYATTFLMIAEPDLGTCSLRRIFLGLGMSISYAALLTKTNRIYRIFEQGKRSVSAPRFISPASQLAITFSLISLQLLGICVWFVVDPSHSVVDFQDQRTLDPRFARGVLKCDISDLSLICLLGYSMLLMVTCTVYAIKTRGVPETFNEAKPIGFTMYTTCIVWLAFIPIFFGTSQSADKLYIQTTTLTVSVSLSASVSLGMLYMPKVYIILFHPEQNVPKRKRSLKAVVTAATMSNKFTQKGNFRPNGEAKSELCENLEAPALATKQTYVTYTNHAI

Row | SMILES | IC50 [nM]
1 | COCCn1c([C@@H](NC(=O)c2cnc(C)cn2)[C@@H](C)OC(F)F)nc2cc(F)c(F)cc21 [Example 28, N-[(1R,2R)-1-[5,6-difluoro-1-(2-methoxyethyl)-1H-1,3-benzodiazol-2-yl]-2-(difluoromethoxy)propyl]-5-methylpyrazine-2-carboxamide] | 10
2 | CO[C@H](C)[C@H](NC(=O)c1cnc(C)cn1)c1nc2cc(Cl)ccc2n1C [Example 29, N-[(1R,2R)-1-(5-chloro-1-methyl-1H-1,3-benzodiazol-2-yl)-2-methoxypropyl]-5-methylpyrazine-2-carboxamide] | 11
3 | Cn1c([C@@H](NC(=O)c2cnc(C(F)F)cn2)C2CC2)nc2cc(F)ccc21 [Example 30, N-[(S)-cyclopropyl (5-fluoro-1-methyl-1H-1,3-benzodiazol-2-yl)methyl]-5-(difluoromethyl)pyrazine-2-carboxamide] | 18
4 | Cc1cnc(C(=O)N[C@H](c2nc3cc(C(F)(F)F)ccc3n2C)[C@]2(O)CCCOC2)cn1 [Example 32, N-[(R)-[(3R)-3-hydroxyoxaN-3-yl][1-methyl-5-(trifluoromethyl)-1H-1,3-benzodiazol-2-yl]methyl]-5-methylpyrazine-2-carboxamide] | 16
5 | CCn1c([C@@H](NC(=O)c2cnc(C)cn2)C(C)(C)O)nc2cc(F)ccc21 [Example 39, N-[(1R)-1-(1-ethyl-5-fluoro-1H-1,3-benzodiazol-2-yl)-2-hydroxy-2-methylpropyl]-5-methylpyrazine-2-carboxamide] | 28
6 | CO[C@H](C)[C@H](NC(=O)c1cnc(C)cn1)c1nc2cc(OC(F)(F)F)ccc2n1C [Example 43, N-[(1R,2R)-2-methoxy-1-[1-methyl-5-(trifluoromethoxy)-1H-1,3-benzodiazol-2-yl]propyl]-5-methylpyrazine-2-carboxamide] | 10
7 | Cc1cnc(C(=O)N[C@H](c2nc3c(C)c(C#N)ccc3n2C)C2CC2)cn1 [Example 45, N-[(S)-(5-cyano-1,4-dimethyl-1H-1,3-benzodiazol-2-yl)(cyclopropyl)methyl]-5-methylpyrazine-2-carboxamide] | 26
8 | Cc1cnc(C(=O)N[C@H](c2nc3cc(Cl)ccc3n2C)C2CC2)cn1 [Example 47, N-[(S)-(5-chloro-1-methyl-1H-1,3-benzodiazol-2-yl)(cyclopropyl)methyl]-5-methylpyrazine-2-carboxamide] | 9
9 | COCCn1c([C@@H](NC(=O)c2cnc(C(F)F)cn2)[C@H]2CCOC2)nc2cc(F)ccc21 [Example 48, 5-(difluoromethyl)-N-[(S)-[5-fluoro-1-(2-methoxyethyl)-1H-1,3-benzodiazol-2-yl][(3R)-oxolaN-3-yl]methyl]pyrazine-2-carboxamide] | 21
10 | CCn1c([C@@H](NC(=O)c2cnc(C)cn2)C(C)(C)O)nc2cc(F)c(F)cc21 [Example 50, N-[(1R)-1-(1-ethyl-5,6-difluoro-1H-1,3-benzodiazol-2-yl)-2-hydroxy-2-methylpropyl]-5-methylpyrazine-2-carboxamide] | 24

More lines, in order of falling IC50, values ahead:

Row | IC50 [nM] | SMILES
11 | 9 | Cc1cnc(C(=O)N[C@H](c2nc3cc(F)ccc3n2CC(F)F)C(C)C)cn1 [Example 37, N-[(1S)-1-[1-(2,2-difluoroethyl)-5-fluoro-1H-1,3-benzodiazol-2-yl]-2-methylpropyl]-5-methylpyrazine-2-carboxamide]
12 | 7 | CCn1c([C@@H](NC(=O)c2cnc(C)cn2)C2CC2)nc2cc(OC(F)F)ccc21 [Example 49, N-[(S)-cyclopropyl[5-(difluoromethoxy)-1-ethyl-1H-1,3-benzodiazol-2-yl]methyl]-5-methylpyrazine-2-carboxamide]
13 | 6 | Cc1cnc(C(=O)N[C@H](c2nc3cc(C(F)(F)F)ccc3n2C)C2CC2)cn1 [Example 31, N-[(S)-cyclopropyl[1-methyl-5-(trifluoromethyl)-1H-1,3-benzodiazol-2-yl]methyl]-5-methylpyrazine-2-carboxamide]
14 | 5 | Cc1cnc(C(=O)N[C@H](c2nc3cc(F)ccc3n2CC(F)(F)F)C2CC2)cn1 [Example 27, N-[(S)-cyclopropyl[5-fluoro-1-(2,2,2-trifluoroethyl)-1H-1,3-benzodiazol-2-yl]methyl]-5-methylpyrazine-2-carboxamide]
15 | 5 | Cc1cnc(C(=O)N[C@H](c2nc3cc(Br)ccc3n2C)C2CC2)cn1 [Example 34, N-[(S)-(5-bromo-1-methyl-1H-1,3-benzodiazol-2-yl)(cyclopropyl)methyl]-5-methylpyrazine-2-carboxamide]
16 | 5 | CCn1c([C@@H](NC(=O)c2cnc(C)cn2)C2CC2)nc2c(C)c(C#N)ccc21 [Example 38, N-[(S)-(5-cyano-1-ethyl-4-methyl-1H-1,3-benzodiazol-2-yl)(cyclopropyl)methyl]-5-methylpyrazine-2-carboxamide]
17 | 5 | Cc1cnc(C(=O)N[C@H](c2nc3c(C)c(C#N)ccc3n2CC(F)F)C2CC2)cn1 [Example 44, N-[(S)-[5-cyano-1-(2,2-difluoroethyl)-4-methyl-1H-1,3-benzodiazol-2-yl](cyclopropyl)methyl]-5-methylpyrazine-2-carboxamide]
18 | 4 | CCn1c([C@@H](NC(=O)c2cnc(C(F)F)cn2)C2CC2)nc2c(C)c(C#N)ccc21 [Example 33, N-[(S)-(5-cyano-1-ethyl-4-methyl-1H-1,3-benzodiazol-2-yl)(cyclopropyl)methyl]-5-(difluoromethyl)pyrazine-2-carboxamide]
19 | 3 | CCn1c([C@@H](NC(=O)c2cnc(C)cn2)C2CC2)nc2cc(C(F)(F)F)ccc21 [Example 36, N-[(S)-cyclopropyl[1-ethyl-5-(trifluoromethyl)-1H-1,3-benzodiazol-2-yl]methyl]-5-methylpyrazine-2-carboxamide]
20 | 2 | COCCn1c([C@@H](NC(=O)c2cnc(C)cn2)C2CC2)nc2cc(C(F)(F)F)ccc21 [Example 35, N-[(S)-cyclopropyl[1-(2-methoxyethyl)-5-(trifluoromethyl)-1H-1,3-benzodiazol-2-yl]methyl]-5-methylpyrazine-2-carboxamide]
21 | 2 | COCCn1c([C@@H](NC(=O)c2cnc(C(F)F)cn2)[C@@H]2CCCO2)nc2cc(OC(F)(F)F)ccc21 [Example 40, 5-(difluoromethyl)-N-[(R)-[1-(2-methoxyethyl)-5-(trifluoromethoxy)-1H-1,3-benzodiazol-2-yl][(2S)-oxolan-2-yl]methyl]pyrazine-2-carboxamide]
22 | 2 | CO[C@H](C)[C@H](NC(=O)c1cnc(C)cn1)c1nc2cc(OC(F)(F)F)ccc2n1CCOC(C)C [Example 41, N-[(1R,2R)-2-methoxy-1-{1-[2-(propan-2-yloxy)ethyl]-5-(trifluoromethoxy)-1H-1,3-benzodiazol-2-yl}propyl]-5-methylpyrazine-2-carboxamide]
23 | 2 | Cc1cnc(C(=O)N[C@H](c2nc3c(Cl)c(Br)ccc3n2C)C2CC2)cn1 [Example 42, N-[(S)-(5-bromo-4-chloro-1-methyl-1H-1,3-benzodiazol-2-yl)(cyclopropyl)methyl]-5-methylpyrazine-2-carboxamide]
24 | 2 | CCn1c([C@@H](NC(=O)c2cnc(C)cn2)C2CC2)nc2cc(OC(F)(F)F)ccc21 [Example 46, N-[(S)-cyclopropyl[1-ethyl-5-(trifluoromethoxy)-1H-1,3-benzodiazol-2-yl]methyl]-5-methylpyrazine-2-carboxamide]

Source: patent US20240182453A1, “NOVEL SUBSTITUTED PYRAZINE-CARBOXAMIDE DERIVATIVES” (Boehringer Ingelheim International GmbH, priority 2022, published 2024)
